According to patent publication US20250002473A1, “QUINOXALINE DERIVED SULFONAMIDES WITH EGFR DEGRADATION ACTIVITIES AND THEIR USES THEREOF” (Accutar Biotechnology Inc., priority 2023, published 2025):
Read-outs that look alike come from different tables or passages of the source.

Experiments:
Type in all cases: cell-based
A431 = experiment: Cell growth inhibition assay (CellTiter-Glo), A431; conditions: Homo sapiens, A-431, 72 h, A431 cells, three days, read-out: A431 GI50
Outline: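 Cells were plated in 96-well plates (Corning 3610) at 90 μL of culture medium per well and incubated overnight at 37° C. The next day, a 1,000× DMSO compound stock was diluted 1:100 in cell culture medium, and 10 μL was added per well. After shaking for 10 min, luminescence was read on an Envision (PerkinElmer) reader.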

NCI-H2073 = experiment: Cell growth inhibition assay (CellTiter-Glo), NCI-H2073; conditions: 72 h; Table 8; NCI-H2073 cells, three days
Method: Cells were seeded in a 96-well plate (Corning 3610) with 90 μL of culture medium per well, and plates were incubated at 37° C. overnight. A 1,000× DMSO stock solution of the desired compound was prepared the following day. A compound dilution plate was prepared by diluting the stock solution 1:100 in the corresponding cell culture medium, 10 μL of the diluted compound solution was added to each 96-well plate well containing the seeded cells. […] The content of the wells was mixed by shaking continuously for 10 min, and luminescence was measured using Envision (PerkinElmer). The data were analyzed with GraphPad Prism 9 (see FIG. 50).
(§1) Table 6, Table 7, and Table 8 list the cell growth inhibition results, where Gls0 represents the compound concentration to cause 50% cell growth inhibition in comparison with DMSO.

HCC827 = experiment: Cell growth inhibition assay (CellTiter-Glo), HCC827; conditions: Homo sapiens, 72 h, Table 8, HCC827 cells, three days
Method: (§2) HCC827_LTC and HCC827_DTC cell lines were generated by first transducing HCC827 cells (ATCC) with lentiviral particles expressing codon-optimized human EGFR L858R/T790M/C797S (LTC) mutant or Del19/T790M/C797S (DTC) mutant, and then selecting under 5 μg/ml puromycin treatment for a week. The endogenous EGFR alleles were subsequently abolished using the Alt-R™ CRISPR-Cas9 technology (Integrated DNA Technologies). Single clones of HCC827_LTC and HCC827_DTC were selected and validated for endogenous EGFR knockout using Sanger sequencing.
(§3) Cells were seeded in a 96-well plate (Corning 3610) with 90 μL of culture medium per well, and plates were incubated at 37° C. overnight. A 1,000× DMSO stock solution of the desired compound was prepared the following day. A compound dilution plate was prepared by diluting the stock solution 1:100 in the corresponding cell culture medium, 10 μL of the diluted compound solution was added to each 96-well plate well containing the seeded cells. Then, the cells were cultured at 37° C. for three days following compound treatment, 100 μL of CellTiter-Glo reagents (Promega G7573) was added to each well of the 96-well plate. The content of the wells was mixed by shaking continuously for 10 min, and luminescence was measured using Envision (PerkinElmer). The data were analyzed with GraphPad Prism 9 (see FIG. 50).
as §1

HCC827_LTC = experiment: Cell growth inhibition assay (CellTiter-Glo), HCC827_LTC; conditions: 72 h; Table 8; HCC827 expressing human EGFR L858R/T790M/C797S, endogenous EGFR knockout, three days
Method: as §2, §3, §1

HCC827_DTC = experiment: Cell growth inhibition assay (CellTiter-Glo), HCC827_DTC; conditions: 72 h; Table 8; HCC827 expressing human EGFR Del19/T790M/C797S, endogenous EGFR knockout, three days
Method: as §2, §3, §1

A431 (EGFR_WT) = biological target: T1, A431 (EGFR_WT) (Homo sapiens, UniProt P00533); experiment: EGFR degradation assay (western blot), A431 cells; conditions: compounds 24 h, western blot, read-out: A431 DC50
T1 construct: endogenous in cells; host or cells: A431, NCI-H2073, NCI-H292
T1 sequence (P00533 25-1210): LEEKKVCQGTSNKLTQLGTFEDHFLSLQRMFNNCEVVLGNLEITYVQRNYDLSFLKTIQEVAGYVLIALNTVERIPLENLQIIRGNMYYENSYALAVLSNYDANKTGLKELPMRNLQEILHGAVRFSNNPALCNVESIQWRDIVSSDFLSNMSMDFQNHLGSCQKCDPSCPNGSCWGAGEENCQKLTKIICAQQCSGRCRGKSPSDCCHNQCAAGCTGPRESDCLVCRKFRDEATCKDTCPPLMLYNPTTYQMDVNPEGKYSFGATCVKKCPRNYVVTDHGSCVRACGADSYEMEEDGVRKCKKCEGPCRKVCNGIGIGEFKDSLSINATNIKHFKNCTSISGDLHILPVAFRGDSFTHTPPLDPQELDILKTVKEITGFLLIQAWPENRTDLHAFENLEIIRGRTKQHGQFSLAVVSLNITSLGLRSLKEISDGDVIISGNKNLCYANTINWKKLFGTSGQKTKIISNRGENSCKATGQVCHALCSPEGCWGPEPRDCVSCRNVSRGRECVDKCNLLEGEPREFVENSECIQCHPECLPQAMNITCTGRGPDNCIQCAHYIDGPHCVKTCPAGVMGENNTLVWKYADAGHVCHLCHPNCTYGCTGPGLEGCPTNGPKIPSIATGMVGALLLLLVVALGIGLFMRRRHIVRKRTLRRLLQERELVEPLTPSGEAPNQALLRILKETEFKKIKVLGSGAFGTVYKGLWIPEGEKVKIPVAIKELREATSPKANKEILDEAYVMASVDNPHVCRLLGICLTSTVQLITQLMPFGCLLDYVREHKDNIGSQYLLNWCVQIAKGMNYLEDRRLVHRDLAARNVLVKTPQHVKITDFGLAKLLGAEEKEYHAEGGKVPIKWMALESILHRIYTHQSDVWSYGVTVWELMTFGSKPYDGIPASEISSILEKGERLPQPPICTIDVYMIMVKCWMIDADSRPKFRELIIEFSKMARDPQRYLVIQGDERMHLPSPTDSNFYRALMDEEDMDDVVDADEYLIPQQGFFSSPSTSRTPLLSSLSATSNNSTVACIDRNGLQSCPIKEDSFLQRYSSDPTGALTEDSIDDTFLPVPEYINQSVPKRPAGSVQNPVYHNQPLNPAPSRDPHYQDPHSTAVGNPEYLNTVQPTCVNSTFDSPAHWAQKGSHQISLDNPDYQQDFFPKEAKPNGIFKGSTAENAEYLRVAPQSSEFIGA
Method: A431 (EGFR_WT), NCl-H2073 (EGFR_WT), NCl-H292 (EGFR_WT), BaF3_YVAM (Her2_A775insYVAM), BaF3_SVD (EGFR_D770insSVD), BaF3_ASV (EGFR_A776inASV), or BaF3_DTC (EGFR_Exon19del/T790M/C797S) cells were seeded in a 24-well plate at a density of 4×10^5 cells per well for EGFR WT cells and 8× cells per well for EGFR or Her2 mutant cells, and the plates were incubated overnight. The cells were treated with the desired compounds for 24 h. The culture medium was removed, and 100 μL of RIPA buffer (Beyotime, P0013B) containing 1% Protease Inhibitor Cocktail (Bimake, B14001), 1% Phosphatase Inhibitor Cocktail 2 (Sigma, P5726), and 1% Phosphatase Inhibitor Cocktail 3 (Sigma, P0044) were added to lyse the cells. Then, the cell lysates were transferred to 1.5 mL microcentrifuge tubes and centrifuged at 12,000 rpm and 4° C. for 30 min. The supernatants were transferred into new tubes, and the protein concentration was determined using the BCA protein quantification method. All samples were diluted to the same concentration using RIPA buffer, loading buffer was added, samples were denatured, and 15 μg of protein per lane was loaded onto a SurePAGE 4-20% Bis-Tris gel. Samples were separated via electrophoresis in MOPS running buffer at 180 V for 100 min. Then, proteins were transferred onto PVDF membranes using the MiniBlot™ Electrophoretic Transfer Cell Device (Beyotime, E6050). The membrane was blocked using block buffer (LI-COR 927-60001) to prevent non-specific binding. The membrane was incubated with primary antibodies (1:500 dilution, EGFR-CST4405, 1:2000 dilution, Tubulin-ABclonal #AC021) at 4° C. overnight. The membrane was washed three times with 1× TBST buffer for 15 min each. The membrane was incubated with secondary antibodies IRDye 680RD Goat anti-Rabbit IgG Secondary Antibody (1:2000 dilution, LI-COR 926-68071) and IRDye 800CW Goat anti-Mouse IgG Secondary Antibody (1:2000 dilution, LI-COR 926-32210). Finally, the membrane was washed again with 1× TBST buffer 3 times. Fluorescence was detected using the Odyssey CLx Imaging System, and the data were analyzed with Empiria Studio Software and GraphPad Prism 9. Table 4 and Table 5 list the degradation results, where the degradation potency is represented by DC50, the concentration of compounds to cause the degradation of 50% of the corresponding proteins. FIGS. 45-49 show western blots illustrating the EGFR degradative activity of exemplary Compound of the present disclosure and a comparator Compound A in different cell lines 24 h after administration. The Compound referred herein as Compound A is disclosed in WO 2022/171123 A1 (see, compound 133, page 46; published Aug. 18, 2022). WO 2022/171123 A1 discloses phosphine oxide derived molecules with EGFR degradation activity.

[1] = tested on: BaF3_DTC (EGFR_Exon19del/T790M/C797S); experiment: EGFR degradation assay (western blot), BaF3_DTC cells; conditions: BaF3_DTC cells (EGFR_Exon19del/T790M/C797S), compounds 24 h, western blot; read-out: BaF3_DTC DC50
Outline: (§4)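 Cells seeded overnight, then exposed to compounds for 24 h; lysates run on western blot, EGFR probed with tubulin loading control and fluorescent secondary detection. DC50 = concentration giving 50% EGFR degradation.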

[2] = biological target: T2, BaF3_ASV (EGFR_A776inASV) (Homo sapiens, UniProt P00533, DUP767-769); experiment: EGFR degradation assay (western blot), BaF3_ASV cells; conditions: BaF3_ASV cells, compounds 24 h, western blot; read-out: BaF3_ASV DC50
T2 construct: expressed in transfected cells; host or cells: Ba/F3 (engineered)
T2 sequence (P00533 with tags, fused parts or gaps DUP767-769): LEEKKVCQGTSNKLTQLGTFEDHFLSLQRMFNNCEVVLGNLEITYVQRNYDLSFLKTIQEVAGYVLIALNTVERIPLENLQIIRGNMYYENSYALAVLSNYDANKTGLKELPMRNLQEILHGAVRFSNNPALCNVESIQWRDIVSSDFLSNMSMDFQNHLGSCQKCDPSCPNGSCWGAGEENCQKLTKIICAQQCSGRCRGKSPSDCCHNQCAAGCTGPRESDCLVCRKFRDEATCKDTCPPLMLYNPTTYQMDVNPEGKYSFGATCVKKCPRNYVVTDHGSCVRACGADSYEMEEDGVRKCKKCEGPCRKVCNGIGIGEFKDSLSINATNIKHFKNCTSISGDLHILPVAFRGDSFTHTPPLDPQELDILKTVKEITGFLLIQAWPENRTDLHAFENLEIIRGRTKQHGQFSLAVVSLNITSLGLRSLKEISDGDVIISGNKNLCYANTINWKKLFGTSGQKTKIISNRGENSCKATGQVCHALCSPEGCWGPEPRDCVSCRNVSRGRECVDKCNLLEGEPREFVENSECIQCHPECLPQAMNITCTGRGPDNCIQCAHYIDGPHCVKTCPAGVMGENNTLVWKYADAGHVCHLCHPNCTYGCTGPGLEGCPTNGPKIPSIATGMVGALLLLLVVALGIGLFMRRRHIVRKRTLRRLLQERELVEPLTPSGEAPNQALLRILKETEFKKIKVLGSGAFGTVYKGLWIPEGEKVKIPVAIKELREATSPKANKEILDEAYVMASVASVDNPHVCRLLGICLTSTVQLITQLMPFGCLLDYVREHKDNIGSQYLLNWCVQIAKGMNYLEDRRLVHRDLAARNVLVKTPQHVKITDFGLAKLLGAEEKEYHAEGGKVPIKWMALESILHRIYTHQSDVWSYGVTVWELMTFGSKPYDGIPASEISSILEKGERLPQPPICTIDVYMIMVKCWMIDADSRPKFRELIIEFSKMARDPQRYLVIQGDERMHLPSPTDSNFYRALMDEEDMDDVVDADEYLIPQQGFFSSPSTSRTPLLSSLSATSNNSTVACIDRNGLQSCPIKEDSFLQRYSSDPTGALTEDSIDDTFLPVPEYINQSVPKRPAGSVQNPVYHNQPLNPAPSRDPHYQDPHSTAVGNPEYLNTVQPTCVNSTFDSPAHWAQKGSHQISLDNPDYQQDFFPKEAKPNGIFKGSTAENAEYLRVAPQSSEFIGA
Outline: as §4

BaF3_DTC = experiment: Cell growth inhibition assay (CellTiter-Glo), BaF3_DTC; conditions: 72 h; Table 6; BaF3_DTC cells, three days, CellTiter-Glo; read-out: BaF3_DTC GI50
BaF3_ASV = experiment: Cell growth inhibition assay (CellTiter-Glo), BaF3_ASV; conditions: 72 h

| Structure (SMILES) | GI50 (A431; Table 8) | GI50 (NCI-H2073) | GI50 (HCC827) | GI50 (HCC827_LTC) | GI50 (HCC827_DTC) | DC50 (A431 (EGFR_WT)) | DC50 [1] | DC50 [2] | GI50 (A431; Table 6, CellTiter-Glo) | GI50 (BaF3_DTC) | GI50 (BaF3_ASV; read-out: BaF3_ASV GI50 (nM)) | GI50 (BaF3_ASV; Table 6, BaF3_ASV cells, three days, CellTiter-Glo, read-out: BaF3_ASV GI50) |
| --- | --- | --- | --- | --- | --- | --- | --- | --- | --- | --- | --- | --- |
| COc1cc(N2CCC(N3CCN(CCc4cc(F)c(C5CCC(=O)NC5=O)c(F)c4)CC3)CC2)c(-c2cnn(C)c2)cc1Nc1ncc(Br)c(Nc2ccc3nccnc3c2NS(C)(=O)=O)n1 (stereo not shown) [Compound 70, N-(6-((5-bromo-2-((4-(4-(4-(4-(2,6-dioxopiperidin-3-yl)-3,5-difluorophenethyl)piperazin-1-yl)piperidin-1-yl)-2-methoxy-5-(1-methyl-1H-pyrazol-4-yl)phenyl)amino)pyrimidin-4-yl)amino)quinoxalin-5-yl)methanesulfonamide] | 160 nM | 134 nM | 0.96 nM | 0.45 nM | 1.53 nM |  |  |  |  |  |  |  |
| CCc1cc(Nc2ncc(Br)c(Nc3ccc4nccnc4c3NS(C)(=O)=O)n2)c(OC)cc1N1CCC(N2CCN(CCc3cccc4c3oc(=O)n4C3CCC(=O)NC3=O)CC2)CC1 (stereo not shown) [Compound 77, N-(6-((5-bromo-2-((4-(4-(4-(2-(3-(2,6-dioxopiperidin-3-yl)-2-oxo-2,3-dihydrobenzo[d]oxazol-7-yl)ethyl)piperazin-1-yl)piperidin-1-yl)-5-ethyl-2-methoxyphenyl)amino)pyrimidin-4-yl)amino)quinoxalin-5-yl)methanesulfonamide] |  |  |  |  |  | > 1000 nM | 2.7 nM | > 1000 nM | > 3000 nM | 5.39 nM | 131 nM |  |
| COc1cc(N2CCC(N3CCN(CCc4ccc(NC5CCC(=O)NC5=O)cc4)CC3)CC2)c(-c2cnn(C)c2)cc1Nc1ncc(Br)c(Nc2ccc3nccnc3c2NS(C)(=O)=O)n1 (stereo not shown) [Compound 78, N-(6-((5-bromo-2-((4-(4-(4-(4-((2,6-dioxopiperidin-3-yl)amino)phenethyl)piperazin-1-yl)piperidin-1-yl)-2-methoxy-5-(1-methyl-1H-pyrazol-4-yl)phenyl)amino)pyrimidin-4-yl)amino)quinoxalin-5-yl)methanesulfonamide] | 436 nM | 403 nM | 1 nM | 1.81 nM | 1.96 nM |  |  |  |  |  |  |  |
| COc1cc(N2CCN(C(=O)CN3CCC(c4ccc(NC5CCC(=O)NC5=O)cc4)CC3)CC2)c(-c2cnn(C)c2)cc1Nc1ncc(Br)c(Nc2ccc3nccnc3c2NS(C)(=O)=O)n1 (stereo not shown) [Compound 79, N-(6-((5-bromo-2-((4-(4-(2-(4-(4-((2,6-dioxopiperidin-3-yl)amino)phenyl)piperidin-1-yl)acetyl)piperazin-1-yl)-2-methoxy-5-(1-methyl-1H-pyrazol-4-yl)phenyl)amino)pyrimidin-4-yl)amino)quinoxalin-5-yl)methanesulfonamide] | 164 nM | 654 nM | 0.22 nM | 0.77 nM | 2.6 nM |  |  |  |  |  |  |  |
| COc1cc(N2CCN(C(=O)CN3CCN(c4ccc(NC5CCC(=O)NC5=O)cc4)CC3)CC2)c(-c2cnn(C)c2)cc1Nc1ncc(Br)c(Nc2ccc3nccnc3c2NS(C)(=O)=O)n1 (stereo not shown) [Compound 80, N-(6-((5-bromo-2-((4-(4-(2-(4-(4-((2,6-dioxopiperidin-3-yl)amino)phenyl)piperazin-1-yl)acetyl)piperazin-1-yl)-2-methoxy-5-(1-methyl-1H-pyrazol-4-yl)phenyl)amino)pyrimidin-4-yl)amino)quinoxalin-5-yl)methanesulfonamide] | 389 nM | 721 nM | 6.81 nM | 11 nM | 79.4 nM |  |  |  |  |  |  |  |
| COc1cc(N2CCC(N3CC4(CN(C(=O)CC5(O)CCN(c6ccc(NC7CCC(=O)NC7=O)cc6F)CC5)C4)C3)CC2)c(-c2cnn(C)c2)cc1Nc1ncc(Br)c(Nc2ccc3nccnc3c2NS(C)(=O)=O)n1 (stereo not shown) [Compound 81, N-(6-((5-bromo-2-((4-(4-(6-(2-(1-(4-((2,6-dioxopiperidin-3-yl)amino)-2-fluorophenyl)-4-hydroxypiperidin-4-yl)acetyl)-2,6-diazaspiro[3.3]heptan-2-yl)piperidin-1-yl)-2-methoxy-5-(1-methyl-1H-pyrazol-4-yl)phenyl)amino)pyrimidin-4-yl)amino)quinoxalin-5-yl)methanesulfonamide] | 746 nM | > 3000 nM | 2.41 nM | 2.03 nM | 4.21 nM |  |  |  |  |  |  |  |
| CCc1cc(Nc2ncc(Br)c(Nc3ccc4nccnc4c3NS(C)(=O)=O)n2)c(OC)cc1N1CCC(N2CC[C@@H](CN3CCN(c4ccc5c(c4)CN([C@H]4CCC(=O)NC4=O)C5=O)CC3)C2)CC1 [Compound 92] |  |  |  |  |  | > 1000 nM | 3.97 nM | 24.5 nM | > 1000 nM | 14.6 nM |  | 92.9 nM |
